Laboratory results reported in patent US7713972B2, “Imidazotriazinone derivatives as PDE 7 (phosphodiesterase 7) inhibitors” (Asubio Pharma Co., Ltd., priority 2003, dated 2010).

Target: T1, PDE 7 (phosphodiesterase VII) (Homo sapiens, UniProt Q13946)
T1 construct: endogenous in cells; host or cells: MOLT-4 (ATCC CRL-1582), soluble fraction, HiTrap Q column, fraction eluting at about 350 mM NaCl
Test: PDE 7 inhibiting effect (Biological Test 1; 3H-cAMP hydrolysis by PDE 7 active fraction from MOLT-4 cells)
Assay type: biochemical
Conditions: PDE 7 fraction from MOLT-4 cells; 0.064 μM cAMP, 10 μM rolipram present, 2 hours at 25° C.; read-out: PDE 7 inhibiting activities, IC50
Method: The PDE 7 (phosphodiesterase VII) inhibiting effect of the compounds of the present invention was performed by the following method, which was modified assay method described in Biochemical. Pharmacol. 48(6), 1219-1223 (1994).
(1) The active fraction of PDE 7 (phosphodiesterase VII) was obtained. That is, MOLT-4 (obtainable from ATCC as ATCC No. CRL-1582), which was cell line of human acute lymphoblastic lymphoma T cells, was incubated in RPMI1640 culture medium containing 10% fetal bovine serum to obtain 5×10^8 MOLT-4 cells. The cells were collected by centrifugation and suspended with 10 mL of buffer solution A [25 mM of tris-HCl, 5 mM of 2-mercaptoethnol, 2 mM of benzamidine, 2 mM of EDTA, 0.1 mM of 4-(2-aminoethyl) benzensulfonyl hydrochloride; pH 7.5], then homogenized by Polytron® homogenizer. The homogenate were centrifuged under 25,000×G for 10 minutes at 4° C. The supernatant was separated and thus obtained supernatant was further centrifuged under 100,000×G for 60 minutes at 4° C., and then filtrated with 0.2 μm filter to obtain the soluble fraction. (2) The obtained soluble fraction was filled in equilibrium HiTrap Q column (5 mL×2) with buffer solution A, and phosphodiesterase fractions were eluted by 300 mL of buffer solution A with linear gradient from 0 to 0.8 M NaCl concentration. 5 ml each of 60 eluents were collected, and each eluents were examined for cyclic AMP metabolic activities of phosphodiesterase. The fraction eluting with about 350 mM NaCl concentration parts, where metabolic activities were not inactivated by 10 μM of rolipram (selective inhibitor for phosphodiesterase IV) and 10 μM of milrinone (selective inhibitor for phosphodiesterase III), were collected as storage solution for using to test PDE 7 inhibiting effect. […] Further, SEPHADEX®-QAE (cross-linked dextran gel) was added to the obtained supernatant and the mixture was leaved at rest for 5 minutes, then, the radioactivity of the solution was measured. […]

T1 sequence (Q13946 whole entry): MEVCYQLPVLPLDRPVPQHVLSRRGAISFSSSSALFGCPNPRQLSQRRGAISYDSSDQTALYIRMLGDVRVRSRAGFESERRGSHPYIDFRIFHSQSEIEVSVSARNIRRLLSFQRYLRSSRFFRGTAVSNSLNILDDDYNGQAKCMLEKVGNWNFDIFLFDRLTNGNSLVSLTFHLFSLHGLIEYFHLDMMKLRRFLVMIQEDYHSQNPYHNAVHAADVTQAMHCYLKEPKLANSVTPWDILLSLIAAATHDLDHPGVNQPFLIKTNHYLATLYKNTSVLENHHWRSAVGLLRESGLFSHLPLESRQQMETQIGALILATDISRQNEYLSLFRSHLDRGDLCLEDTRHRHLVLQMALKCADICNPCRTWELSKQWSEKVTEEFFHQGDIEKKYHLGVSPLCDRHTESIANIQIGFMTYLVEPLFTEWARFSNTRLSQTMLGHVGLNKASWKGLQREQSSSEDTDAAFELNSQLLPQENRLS

COc1ccccc1-c1nn2c(C)nc(C3CCCCC3)c2c(=O)[nH]1 [Compound 12, 5-Cyclohexyl-2-(2-methoxyphenyl)-7-methylimidazo-[5,1-f][1,2,4]triazin-4(3H)-one]
IC50: 490 nM

COc1cc(N2CCN(C)CC2)ccc1-c1nc2c(C)nc(C3CCCCC3)n2c(=O)[nH]1 [Compound 11, 6-Cyclohexyl-2-[2-methoxy-4-(4-methyl-1-piperadinyl)phenyl]-8-methylimidazo[1,5-a][1,3,5]triazin-4(3H)-one]
IC50: 55 nM

COc1ccccc1-c1nc2c(C)nc(C3CCCCC3)n2c(=O)[nH]1 [Compound 8, 6-Cyclohexyl-2-(2-methoxyphenyl)-8-methylimidazo[1,5-a][1,3,5]-triazin-4(3H)-one]
IC50: 340 nM
